Measured values as given in patent publication US12622941B2, “Anticoccidial composition comprising ginkgo leaves and use thereof” (CJ CHEILJEDANG CORPORATION, priority 2020, dated 2026).

Key:
Eimeria acervulina [1] = assay: Eimeria acervulina sporozoite death rate by component of ginkgo leaf powder; assay type: cell-based
Experimental: (§1) A certain amount of oocysts of each protozoan was put in a tube containing glass beads and pulverized, and then to remove the crushed oocyst cell wall and other debris, internal sporocysts were purified using the percoll density gradient, and washed with PBS solution. A reagent comprising sodium taurocholic acid (Sigma aldrich, USA) and trypsin (Gibco, USA), respectively, was treated to sporocysts of Eimeria tenella, Eimeria acervulina and Eimeria maxima for excystation and they were incubated, and then they were washed with PBS solution once and protozoa were obtained.

Eimeria acervulina [2] = assay: Direct killing of protozoa (sporozoites), Eimeria acervulina; assay type: cell-based; conditions: tested 1 to 500 ppm, vs PBS control
Experimental: (§2) In the present example, protozoan (sporozoite) direct killing ability evaluation was conducted against 3 representative Eimeria kinds known to be infected in most farms (E. tenella, E. acervulina, E. maxima).
as §1

Eimeria tenella [3] = assay: Direct killing of protozoa (sporozoites), Eimeria tenella; assay type: cell-based; conditions: tested 1 to 500 ppm, vs PBS control
Experimental: as §2, §1

Eimeria tenella [4] = assay: In vivo anticoccidial efficacy in broilers after Eimeria tenella challenge inoculation; conditions: in feed: salinomycin 60 ppm, diclazuril 1 ppm, ginkgo leaf powder 125 ppm; for Anticoccidial index (ACI): Equation 2, out of 200 points; for Lesion index: appendix lesion score x 10; for ADG after challenge inoculation / Survival rate (%): broilers; for ADG after challenge inoculation: before to 7th day after challenge; for Survival rate (%): up to 8th day after challenge; for Oocyst index: from oocyst excretion % of infected negative control; for Daily weight gain compared to negative control group (RWG, %): relative to non-infected negative control; for Appendix lesion score: scale 0-4, 8th day after challenge
Experimental: An in vivo anticoccidial efficacy evaluation test was performed in an animal experiment facility in Gyeongsangnam-do, South Korea. One-day-old female Ross broilers were individually weighed and randomly divided into groups to use in an experiment. Matters and conditions for experimental design were described in Table 2.
For the feed, Korea Feed A1-choi product was used, and each material diclazuril (Yuhan Corporation YUHAN DICLA product), salinomycin (Cheil Bio Cheilsalino-60 product), gallic acid (Sigma product), the ginkgo leaf product prepared in Example 1-2) was added to the feed, respectively, at a concentration described in Table 3 below to be self-mixed. Antibiotics and supplements were not used in general feed and mixed feed, and no anticoccidial agent other than each material was added. Broilers were fed ad libitum throughout the experiment period. After putting 30 1-day-age broilers in cages randomly placed for each of the control group or test group and breeding, general feed (A1-choi product) was fed for 7 days, and then the mixed feed prepared above was ingested by dividing by control group or test group.
The feed formulation administered to the control group (negative control group or positive control group) and test group and whether coccidiosis was induced by Eimeria tenella were described in Table 3 below.
14-day-old broilers were orally inoculated (challenge inoculation) with 10,000 oocysts (over 90% sporulated Eimeria tenella oocysts) per individual to induce coccidiosis.
The anticoccidial efficacy by test group designed in Example 1-3 above was shown as an anticoccidial index (ACI), and the anticoccidial index was calculated by Equation 2 below. The ACI score is out of 200 points, and the higher the ACI score, the more excellent the anticoccidial ability, and when it is 120 points or more to less than 140 points, it is determined that it is effective as an anticoccidial material, and when it is 140 points or more to less than 160 points, it is determined that it is excellent as an anticoccidial material, and when it is 160 points or more, it is determined that the anticoccidial effect is very excellent (Luis Miguel De Pablos et al., Anticoccidial activity of maslinic acid against infection with Eimeria tenella in chickens, Parasitol Res, 2010). Anticoccidial index(ACI)=(survival rate after challenge inoculation (%))+(daily weight gain compared to negative control group(RWG,%))−(lesion score×10)−(fecal oocyst excretion amount index)(Equation 2) • 1) Survival rate: the number of dead individuals was recorded daily, and post mortem autopsy was performed to determine a cause of mortality, and the number of individuals who died due to causes other than coccidiosis was excluded. The survival rate (%) up to the 8th day after challenge inoculation was used for anticoccidial index calculation.
• 3) Lesion scoring: On the 8th day after challenge inoculation, an autopsy was conducted for 4 broilers per cage, and the intestines were incised and opened. Scoring was performed for each coccidial lesion in the appendix region of the broilers. The lesion scoring method was performed by referring to Johnson J K & Reid W M (1970) document (Joyce Johnson, W. Malcolm Reid, Anticoccidial drugs: Lesion scoring techniques in battery and floor-pen experiments with chickens, Experimental parasitology, 1970). The lesion score is on a scale of 0-4, and 0 point corresponds to normal appendix, and 1 point is a mild infection symptom, and 2 points is a moderate infection symptom, and 3 points is a severe infection symptom and 4 points is a case of showing a very severe infection symptom or causing death. A lesion index was calculated by multiplying the measured appendix lesion score by 10, and this was used for anticoccidial index calculation.
• 4) Fecal oocyst excretion amount: the entire feces on the 6˜8th day of challenge inoculation were collected by cage, mixed evenly, and then randomly sampled 3 times in total by 1 g each. […]

Eimeria tenella [5] = assay: Intracellular propagation inhibition of Eimeria tenella protozoa in MDBK cells (ITS-1 PCR); assay type: cell-based; conditions: read-out: Intracellular protozoal propagation inhibitory effect (%)
Experimental: 100,000 MDBK cells (purchased from ATCC) were aliquoted in a 24-well plate, and then incubated at a temperature of 37° C. for 12 hours. The protozoan of Eimeria tenella was obtained similar to the method of Example 2 above. […] A negative control group is a MDBK cell infected by protozoa, and a positive control group means a group in which salinomycin and diclazuril solution was incubated with the Eimeria tenella protozoan. After removing the cells and protozoa inside the cells through pipetting, DNA was extracted from the cells, and PCR was performed using E. tenella ITS-1 (Internal transcribed spacer-1) gene-specific primers. The sequences of the used primers were described in Table 10 above.
Ct values before/after washing for each material were compared to calculate the cell invasion inhibition rate (%) of the protozoa and the intracellular protozoan propagation inhibition rate (%) through treatment of the material, and the result was shown in FIG. 2 and Table 11 below.

Eimeria tenella [6] = assay: Cell invasion inhibition of Eimeria tenella protozoa in MDBK cells (ITS-1 PCR); assay type: cell-based; conditions: read-out: Cell invasion inhibitory effect of protozoan (%)
Experimental: 100,000 MDBK cells (purchased from ATCC) were aliquoted in a 24-well plate, and then incubated at a temperature of 37° C. for 12 hours. […] After removing the cells and protozoa inside the cells through pipetting, DNA was extracted from the cells, and PCR was performed using E. tenella ITS-1 (Internal transcribed spacer-1) gene-specific primers. The sequences of the used primers were described in Table 10 below. Ct values before/after washing for each material were compared and corrected with the ΔCt value of the negative control group to calculate the cell invasion inhibition rate (%) of the protozoa through treatment of each material, and the result was shown in FIG. 2 and Table 11 below.

Eimeria maxima = assay: Direct killing of protozoa (sporozoites), Eimeria maxima; assay type: cell-based; conditions: tested 1 to 500 ppm, vs PBS control
Experimental: as §2, §1

| SMILES | Eimeria acervulina sporozoite death rate (%) (Eimeria acervulina [1]; 8 ppm) | Eimeria acervulina sporozoite death rate (%) (Eimeria acervulina [1]; 16 ppm) | Eimeria acervulina sporozoite death rate (%) (Eimeria acervulina [1]; 31 ppm) | Eimeria acervulina sporozoite death rate (%) (Eimeria acervulina [1]; 63 ppm) | Eimeria acervulina sporozoite death rate (%) (Eimeria acervulina [1]; 125 ppm) | Eimeria acervulina sporozoite death rate (%) (Eimeria acervulina [1]; 250 ppm) | Eimeria acervulina sporozoite death rate (%) (Eimeria acervulina [1]; 500 ppm) | Minimum concentration for killing 50% protozoa (sporozoites) (ppm) (Eimeria acervulina [2]) | Minimum concentration for killing 50% protozoa (sporozoites) (ppm) (Eimeria tenella [3]) | Anticoccidial index (ACI) (Eimeria tenella [4]) | Lesion index (Eimeria tenella [4]) | ADG after challenge inoculation (Eimeria tenella [4]) [g/day] | Survival rate (%) (Eimeria tenella [4]) | Oocyst index (Eimeria tenella [4]) | Daily weight gain compared to negative control group (RWG, %) (Eimeria tenella [4]) [%] | Appendix lesion score (Eimeria tenella [4]) | Minimum concentration for killing 50% protozoa (sporozoites) (ppm) (Eimeria maxima) | other results |
| --- | --- | --- | --- | --- | --- | --- | --- | --- | --- | --- | --- | --- | --- | --- | --- | --- | --- | --- |
| CC(C)(C)C1(O)CC2OC(=O)CC23C(=O)OC2OC(=O)C(O)C231 (stereo not drawn) [Bilobalide] | 0 | 0 | 0 | 8 | 14 | 41 | 51 | – | – | – | – | – | – | – | – | – | – | – |
| N#CC(c1ccc(Cl)cc1)c1c(Cl)cc(-n2ncc(=O)[nH]c2=O)cc1Cl (stereo not drawn) [Diclazuril, diclazuril] | – | – | – | – | – | – | – | >500 | 500 | 148 | 29 | 62 | 97 | 10 | 93 | 2.88 | >500 | inhibition at 0.5 ppm (Eimeria tenella [5]; 0.5 ppm, MDBK cells): 45.9%; inhibition at 1 ppm (Eimeria tenella [5]; 1 ppm, MDBK cells): 52.9%; inhibition at 0.5 ppm (Eimeria tenella [6]; 0.5 ppm, MDBK cells, 24 hours): 0%; inhibition at 1 ppm (Eimeria tenella [6]; 1 ppm, MDBK cells, 24 hours): 6.3% |
| O=C(O)c1cc(O)c(O)c(O)c1 [Gallic acid, gallic acid] | – | – | – | – | – | – | – | >500 | >500 | – | – | – | – | – | – | – | >500 | Minimum concentration for killing 50% protozoa (sporozoites) (ppm) (Eimeria tenella [3]; listed as gallic acid): > 500 ppm; inhibition at 5 ppm (Eimeria tenella [5]; 5 ppm, MDBK cells): 0%; inhibition at 10 ppm (Eimeria tenella [5]; 10 ppm, MDBK cells): 0%; inhibition at 5 ppm (Eimeria tenella [6]; 5 ppm, MDBK cells, 24 hours): 76%; inhibition at 10 ppm (Eimeria tenella [6]; 10 ppm, MDBK cells, 24 hours): 90.1% |
| O=c1c(O)c(-c2ccc(O)cc2)oc2cc(O)cc(O)c12 [Kaempferol] | 0 | 0 | 0 | 0 | 1 | 27 | 54 | – | – | – | – | – | – | – | – | – | – | – |
| O=c1c(O)c(-c2ccc(O)c(O)c2)oc2cc(O)cc(O)c12 [Quercetin] | 0 | 0 | 0 | 8 | 34 | 47 | 68 | – | – | – | – | – | – | – | – | – | – | – |
| CC[C@@H](C(=O)[C@@H](C)[C@@H](O)[C@H](C)[C@@H]1O[C@@H]([C@@H](CC)C(=O)O)CC[C@@H]1C)[C@H]1O[C@]2(C=C[C@@H](O)[C@]3(CC[C@@](C)([C@H]4CC[C@](O)(CC)[C@H](C)O4)O3)O2)[C@H](C)C[C@@H]1C [Salinomycin, salinomycin] | – | – | – | – | – | – | – | 100 | 125 | 141 | 27 | 62 | 93 | 20 | 94 | 2.7 | 250 | inhibition at 5 ppm (Eimeria tenella [5]; MDBK): 32.2%; inhibition at 10 ppm (Eimeria tenella [5]; MDBK): 34.8%; inhibition at 5 ppm (Eimeria tenella [6]; MDBK, 24 h): 50.1%; inhibition at 10 ppm (Eimeria tenella [6]; MDBK, 24 h): 56.4% |
